The text below walks through data of US10590078B2, “Sodium channel blockers” (Daewoong Pharmaceutical Co., Ltd., priority 2015, dated 2020).

This assay deals with human sodium ion channel 1.7 (hNav1.7) (Homo sapiens, UniProt Q15858). The assay is described as follows: Blocking effect against sodium ion channel Nav1.7, IonFlux16 auto patch clamp in hNav1.7 HEK293 cells. Format: cell-based.
The mark [1] stands for this setting: hNav1.7 HEK293 cells, inhibition of peak current after 50 seconds treatment, eight concentrations, read-out: IC50.

Where two headings read alike, the source gives them in different places.

Sequence of human sodium ion channel 1.7 (hNav1.7) (Q15858 whole entry): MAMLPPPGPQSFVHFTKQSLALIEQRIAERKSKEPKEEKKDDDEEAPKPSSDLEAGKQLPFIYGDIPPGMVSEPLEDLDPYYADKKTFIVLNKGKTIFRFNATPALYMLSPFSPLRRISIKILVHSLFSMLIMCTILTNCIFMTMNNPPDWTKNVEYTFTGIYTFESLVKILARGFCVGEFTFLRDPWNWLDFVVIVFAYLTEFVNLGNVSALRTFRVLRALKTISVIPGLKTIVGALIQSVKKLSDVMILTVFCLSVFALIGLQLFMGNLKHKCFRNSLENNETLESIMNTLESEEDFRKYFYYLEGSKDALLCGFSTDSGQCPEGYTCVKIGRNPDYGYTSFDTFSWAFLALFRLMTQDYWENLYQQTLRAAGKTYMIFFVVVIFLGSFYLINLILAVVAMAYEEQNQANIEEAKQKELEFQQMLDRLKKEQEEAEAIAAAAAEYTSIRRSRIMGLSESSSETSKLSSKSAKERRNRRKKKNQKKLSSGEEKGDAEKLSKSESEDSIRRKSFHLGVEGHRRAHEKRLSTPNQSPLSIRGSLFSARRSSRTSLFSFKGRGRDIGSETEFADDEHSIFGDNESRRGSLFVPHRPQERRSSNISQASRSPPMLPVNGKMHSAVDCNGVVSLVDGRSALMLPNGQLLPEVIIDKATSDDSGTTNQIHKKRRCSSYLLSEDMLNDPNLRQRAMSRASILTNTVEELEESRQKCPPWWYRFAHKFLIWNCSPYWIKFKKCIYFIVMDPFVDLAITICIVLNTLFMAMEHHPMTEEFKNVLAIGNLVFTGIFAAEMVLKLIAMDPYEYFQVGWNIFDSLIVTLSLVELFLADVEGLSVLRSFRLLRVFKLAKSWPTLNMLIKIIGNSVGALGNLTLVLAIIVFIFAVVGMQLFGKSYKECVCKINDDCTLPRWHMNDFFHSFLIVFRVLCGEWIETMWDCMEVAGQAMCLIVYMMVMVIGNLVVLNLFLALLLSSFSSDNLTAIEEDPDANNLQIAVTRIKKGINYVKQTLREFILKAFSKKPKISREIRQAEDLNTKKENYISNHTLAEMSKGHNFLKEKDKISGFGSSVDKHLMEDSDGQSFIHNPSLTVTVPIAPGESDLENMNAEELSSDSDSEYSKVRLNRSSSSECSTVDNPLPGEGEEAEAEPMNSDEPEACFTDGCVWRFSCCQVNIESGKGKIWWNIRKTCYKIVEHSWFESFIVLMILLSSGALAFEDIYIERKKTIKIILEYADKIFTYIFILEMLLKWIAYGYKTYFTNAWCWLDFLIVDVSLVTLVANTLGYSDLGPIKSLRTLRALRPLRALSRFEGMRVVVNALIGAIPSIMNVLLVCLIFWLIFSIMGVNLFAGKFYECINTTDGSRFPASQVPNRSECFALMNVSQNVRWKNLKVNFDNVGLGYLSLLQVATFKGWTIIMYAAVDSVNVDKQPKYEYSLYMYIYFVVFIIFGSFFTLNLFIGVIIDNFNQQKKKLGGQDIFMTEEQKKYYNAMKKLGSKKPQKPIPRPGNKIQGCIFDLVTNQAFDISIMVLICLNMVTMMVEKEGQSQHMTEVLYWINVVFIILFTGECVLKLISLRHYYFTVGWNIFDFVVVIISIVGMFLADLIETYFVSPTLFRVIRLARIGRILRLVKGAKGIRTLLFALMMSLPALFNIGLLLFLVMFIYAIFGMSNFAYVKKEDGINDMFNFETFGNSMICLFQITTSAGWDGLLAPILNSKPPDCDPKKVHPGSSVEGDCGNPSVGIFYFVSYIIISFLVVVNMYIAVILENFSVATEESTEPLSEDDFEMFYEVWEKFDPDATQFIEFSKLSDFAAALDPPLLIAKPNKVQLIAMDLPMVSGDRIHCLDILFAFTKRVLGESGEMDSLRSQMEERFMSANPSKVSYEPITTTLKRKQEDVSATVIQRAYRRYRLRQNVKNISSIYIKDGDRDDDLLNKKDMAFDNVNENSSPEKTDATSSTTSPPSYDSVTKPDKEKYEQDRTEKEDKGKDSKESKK

Turning to `COc1ccc(-c2nn(-c3ccc(C(=O)NS(C)(=O)=O)cc3F)c3ccc(Cl)cc23)cc1` [Example 118, 4-(5-chloro-3-(4-methoxyphenyl)-1H-indazol-1-yl)-3-fluoro-N-(methylsulfonyl)benzamide], under setting [1], the IC50 was found to be 360 nM.
As to `COc1cc(F)ccc1-c1cn(-c2cc(F)c(C(=O)NS(C)(=O)=O)cc2Cl)c2ncc(Cl)cc12` [Example 199, 5-chloro-4-(5-chloro-3-(4-fluoro-2-methoxyphenyl)-1H-pyrrolo[2,3-b]pyridin-1-yl)-2-fluoro-N-(methylsulfonyl)benzamide], under setting [1], the IC50 is 200 nM.
For the molecule `CS(=O)(=O)NC(=O)c1cc(Cl)c(-n2cc(-c3ccc(C(F)(F)F)cc3)c3cc(Cl)cnc32)cc1F` [Example 188, 5-chloro-4-(5-chloro-3-(4-(trifluoromethyl)phenyl)-1H-pyrrolo[2,3-b]pyridin-1-yl)-2-fluoro-N-(methylsulfonyl)benzamide], the IC50 came to 50 nM.
In the case of `CS(=O)(=O)NC(=O)c1cc(Cl)c(-n2nc(-c3ccc(C(F)(F)F)cc3)c3cc(Cl)ccc32)cc1F` [Example 65, 5-chloro-4-(5-chloro-3-(4-(trifluoromethyl)phenyl)-1H-indazol-1-yl)-2-fluoro-N-(methylsulfonyl)benzamide], the IC50 under setting [1] turned out to be 28 nM.
With `CS(=O)(=O)NC(=O)c1cc(Cl)c(-n2nc(Cl)c3cc(OCc4ccccc4F)ccc32)cc1F` [Example 37, 5-chloro-4-(3-chloro-5-((2-fluorobenzyl)oxy)-1H-indazol-1-yl)-2-fluoro-N-(methylsulfonyl)benzamide], the IC50 under setting [1] came out at 159 nM.
The same measure, in the same setting: for `CS(=O)(=O)NC(=O)c1cc(Cl)c(-n2nc(-c3ccccc3)c3cc(-c4ccccc4)ccc32)cc1F` [Example 264, 5-chloro-4-(3,5-diphenyl-1H-indazol-1-yl)-2-fluoro-N-(methylsulfonyl)benzamide] the value was 164 nM; for `CS(=O)(=O)NC(=O)c1cc(Cl)c(-n2nc(Cl)c3cc(Br)ccc32)cc1F` [Example 21, 4-(5-bromo-3-chloro-1H-indazol-1-yl)-5-chloro-2-fluoro-N-(methylsulfonyl)benzamide], 175 nM.
With `CS(=O)(=O)NC(=O)c1cc(Cl)c(-n2nc(-c3cc(F)c(F)c(F)c3)c3cc(Cl)ccc32)cc1F` [Example 77, 5-chloro-4-(5-chloro-3-(3,4,5-trifluorophenyl)-1H-indazol-1-yl)-2-fluoro-N-(methylsulfonyl)benzamide], the IC50 amounted to 20 nM.
For `CS(=O)(=O)NC(=O)c1cc(Cl)c(-n2nc(-c3ccc(F)cc3Cl)c3cc(F)ccc32)cc1F` [Example 158, 5-chloro-4-(3-(2-chloro-4-fluorophenyl)-5-fluoro-1H-indazol-1-yl)-2-fluoro-N-(methylsulfonyl)benzamide], the IC50 under setting [1] was 80 nM.
For the molecule `CS(=O)(=O)NC(=O)c1cc(Cl)c(-n2nc(/C=C/c3ccccc3)c3cc(Cl)ccc32)cc1F` [Example 133, (E)-5-chloro-4-(5-chloro-3-styryl-1H-indazol-1-yl)-2-fluoro-N-(methylsulfonyl)benzamide], under setting [1], the IC50 was 120 nM.
On the same count and under the same terms, for `CS(=O)(=O)NC(=O)c1cc(Cl)c(-n2cc(Cl)c3cc(-c4ccc(F)cc4)cnc32)cc1F` [Example 257, 5-chloro-4-(3-chloro-5-(4-fluorophenyl)-1H-pyrrolo[2,3-b]pyridin-1-yl)-2-fluoro-N-(methylsulfonyl)benzamide] the value was 360 nM; for `CS(=O)(=O)NC(=O)c1cc(Cl)c(-n2cc(Cl)c3cc(Cl)ccc32)cc1F` [Example 266, 5-chloro-4-(3,5-dichloro-1H-indol-1-yl)-2-fluoro-N-(methylsulfonyl)benzamide], 133 nM; for `O=S(=O)(Nc1cscn1)c1cc(Cl)c(-n2nc(-c3ccc(Cl)cc3F)c3cc(Cl)ccc32)cc1F` [Example 287, 5-chloro-4-(5-chloro-3-(4-chloro-2-fluorophenyl)-1H-indazol-1-yl)-2-fluoro-N-(thiazol-4-yl)benzenesulfonamide], 8250 nM.
Take `Cc1ncc(-c2nn(-c3cc(F)c(C(=O)NS(C)(=O)=O)cc3Cl)c3ccc(Cl)cc23)s1` [Example 91, 5-chloro-4-(5-chloro-3-(2-methylthiazol-5-yl)-1H-indazol-1-yl)-2-fluoro-N-(methylsulfonyl)benzamide]: the IC50 under setting [1] amounted to 1930 nM.
On the same count and under the same terms, next, `NC(=O)c1cc(Cl)c(-n2nc(-c3ccc(Cl)cc3F)c3cc(Cl)ccc32)cc1F` [Example 292, 5-chloro-4-(5-chloro-3-(4-chloro-2-fluorophenyl)-1H-indazol-1-yl)-2-fluorobenzamide]: over 10000 nM; `COc1ccccc1-c1nn(-c2ccc(C(=O)NS(C)(=O)=O)cc2C#N)c2ccc(Cl)cc12` [Example 92, 4-(5-chloro-3-(2-methoxyphenyl)-1H-indazol-1-yl)-3-cyano-N-(methylsulfonyl)benzamide]: 5290 nM.
For `CS(=O)(=O)NC(=O)c1cc(Cl)c(-n2nc(Cl)c3cc(-c4ccc(F)c(C#N)c4)ccc32)cc1F` [Example 239, 5-chloro-4-(3-chloro-5-(3-cyano-4-fluorophenyl)-1H-indazol-1-yl)-2-fluoro-N-(methylsulfonyl)benzamide], the IC50 under setting [1] stood at 283 nM.
With `CS(=O)(=O)NC(=O)c1cc(Cl)c(-n2nc(Br)c3cc(Cl)ccc32)cc1F` [Example 19, 4-(3-bromo-5-chloro-1H-indazol-1-yl)-5-chloro-2-fluoro-N-(methylsulfonyl)benzamide], under setting [1], the IC50 came out at 216 nM.
For `CCOC(=O)c1cnc(NC(=O)c2cc(Cl)c(-n3nc(-c4ccc(Cl)cc4F)c4cc(Cl)ccc43)cc2F)s1` [Example 296, ethyl 2-(5-chloro-4-(5-chloro-3-(4-chloro-2-fluorophenyl)-1H-indazol-1-yl)-2-fluorobenzamido)thiazole-5-carboxylate], under setting [1], the IC50 was over 10000 nM.
Consider `CS(=O)(=O)NC(=O)c1ccc(-n2nc(-c3ccc(C#N)cc3)c3cc(Cl)ccc32)c(F)c1` [Example 120, 4-(5-chloro-3-(4-cyanophenyl)-1H-indazol-1-yl)-3-fluoro-N-(methylsulfonyl)benzamide], for which the IC50 under setting [1] was determined as 3890 nM.
Still for that read-out and setting: for `CS(=O)(=O)NC(=O)c1cc(Cl)c(-n2cc(-c3ccc(C(F)(F)F)cc3)c3cccnc32)cc1F` [Example 218, 5-chloro-2-fluoro-N-(methylsulfonyl)-4-(3-(4-(trifluoromethyl)phenyl)-1H-pyrrolo[2,3-b]pyridin-1-yl)benzamide] the value was 290 nM; for `CS(=O)(=O)NC(=O)c1cc(F)c(-n2nc(-c3ccccc3F)c3cc(Cl)ccc32)cc1Cl` [Example 113, 2-chloro-4-(5-chloro-3-(2-fluorophenyl)-1H-indazol-1-yl)-5-fluoro-N-(methylsulfonyl)benzamide], 752 nM.
On to `CS(=O)(=O)NC(=O)c1cc(Cl)c(-n2cc(-c3ccc(Cl)c(F)c3)c3cc(F)cnc32)cc1F` [Example 210, 5-chloro-4-(3-(4-chloro-3-fluorophenyl)-5-fluoro-1H-pyrrolo[2,3-b]pyridin-1-yl)-2-fluoro-N-(methylsulfonyl)benzamide], for which the IC50 under setting [1] came to 60 nM.
Regarding `CS(=O)(=O)NC(=O)c1cc(Cl)c(-n2nc(-c3ccccc3C(F)(F)F)c3cc(F)ccc32)cc1F` [Example 145, 5-chloro-2-fluoro-4-(5-fluoro-3-(2-(trifluoromethyl)phenyl)-1H-indazol-1-yl)-N-(methylsulfonyl)benzamide], under setting [1], the IC50 amounted to 110 nM.
Turning to `CS(=O)(=O)NC(=O)c1cc(Cl)c(-n2nc(-c3cccc(F)c3)c3cc(Cl)ccc32)cc1F` [Example 54, 5-chloro-4-(5-chloro-3-(3-fluorophenyl)-1H-indazol-1-yl)-2-fluoro-N-(methylsulfonyl)benzamide], under setting [1], the IC50 was found to be 26 nM.
With `COc1ncccc1-c1nn(-c2cc(F)c(C(=O)NS(C)(=O)=O)cc2Cl)c2ccc(Cl)cc12` [Example 57, 5-chloro-4-(5-chloro-3-(2-methoxypyridin-3-yl)-1H-indazol-1-yl)-2-fluoro-N-(methylsulfonyl)benzamide], the IC50 under setting [1] was 123 nM.
Same read-out and setting: next, `CS(=O)(=O)NC(=O)c1ccc(-n2nc(-c3cccc(C(F)(F)F)c3)c3cc(Cl)ccc32)c(F)c1` [Example 121, 4-(5-chloro-3-(3-(trifluoromethyl)phenyl)-1H-indazol-1-yl)-3-fluoro-N-(methylsulfonyl)benzamide]: 1090 nM; `COc1ccc(-c2cn(-c3cc(F)c(C(=O)NS(C)(=O)=O)cc3Cl)c3ncc(Cl)cc23)cc1` [Example 196, 5-chloro-4-(5-chloro-3-(4-methoxyphenyl)-1H-pyrrolo[2,3-b]pyridin-1-yl)-2-fluoro-N-(methylsulfonyl)benzamide]: 130 nM; `CS(=O)(=O)NC(=O)c1cc(Cl)c(-n2nc(-c3ccc(F)cc3Cl)c3ccccc32)cc1F` [Example 175, 5-chloro-4-(3-(2-chloro-4-fluorophenyl)-1H-indazol-1-yl)-2-fluoro-N-(methylsulfonyl)benzamide]: 80 nM.
On to `CS(=O)(=O)NC(=O)c1cc(Cl)c(-n2nc(Cl)c3cc(OCc4ccccc4)ccc32)cc1F` [Example 28, 4-(5-(benzyloxy)-3-chloro-1H-indazol-1-yl)-5-chloro-2-fluoro-N-(methylsulfonyl)benzamide], for which the IC50 under setting [1] was 49 nM.
As for `CS(=O)(=O)NC(=O)c1cc(Cl)c(-n2nc(-c3ccccc3Cl)c3cc(F)ccc32)cc1F` [Example 144, 5-chloro-4-(3-(2-chlorophenyl)-5-fluoro-1H-indazol-1-yl)-2-fluoro-N-(methylsulfonyl)benzamide], under setting [1], the 50% inhibitory concentration (IC50) is 540 nM.
Same read-out and setting: for `CS(=O)(=O)NC(=O)c1cc(Cl)c(-n2cc(-c3ccccc3C(F)(F)F)c3cccnc32)cc1F` [Example 216, 5-chloro-2-fluoro-N-(methylsulfonyl)-4-(3-(2-(trifluoromethyl)phenyl)-1H-pyrrolo[2,3-b]pyridin-1-yl)benzamide] the value was 370 nM.
On to `COc1ccccc1-c1nn(-c2cc(F)c(C(=O)NS(C)(=O)=O)cc2Cl)c2ccc(Cl)cc12` [Example 58, 5-chloro-4-(5-chloro-3-(2-methoxyphenyl)-1H-indazol-1-yl)-2-fluoro-N-(methylsulfonyl)benzamide], for which the IC50 under setting [1] is 98 nM.

As a reminder, the IC50 is the point on the concentration scale where inhibition reaches its midpoint.
